Reference: patent publication US8916604B2, “Compositions and methods for epigenetic modification of nucleic acid sequences” (Rutgers, The State University of New Jersey, priority 2011, dated 2014)

Columns and labels:
[1] = oral, 2 mg/kg/day; cited from earlier work
[2] = system: PCNA; assay: IHC staining of TRAMP prostate tissue, cell proliferation; format: in vivo, mouse; conditions: D-G1 (16 weeks) or D-G2 (12 weeks) vs control
Procedure: Sections (4 μm) were cut from the paraffin embedded prostate tissue and mounted on glass slides. The slides Were deparafinized in xylene and antigen unmasking was performed by applying proteinase K digestion directly on the slides for 15 min. Endogenous peroxidase was blocked by incubating in 3% […] for 5 min, and ApopTag Plus Peroxidase In Situ Apoptosis Detection Kit (Millipore, Temecula, Calif., U.S.A.) was used to detect apoptotic cells. For detection of proliferative cells, monoclonal mouse anti-proliferating cell nuclear antigen (PCNA) antibody (Clone PC10, 1:50, Dako North America, Carpinteria, Calif., U.S.A.) was used (12). The staining was performed following as the manufacturer's protocols. Anti-5-methylcytosine (5-MC) mouse monoclone antibody (Clone 162 33 D3, 1:50, EMD Chemicals, Philadelphia, Pa., U.S.A.) was used to detect genome-wide methylated DNA. […] Quantitation of IHC staining was done using the Aperio ScanScope® GL system according to the manufactures protocol (Aperio Technologies Inc., Vista, Calif., U.S.A.). […] The Aperio ImageScopoe software (v 10.1.3.2028) allowed the unbiased quantification and quantitative analysis of the IHC staining of biomarkers of prostate tumor samples obtained from untreated control versus the treated TRAMP mice.

[3] = system: antioxidant response element (ARE); assay: ARE-luciferase reporter assay with combination index calculation; format: cell-based, human
Procedure: The stably transfected single clone HepG2-ARE-C8 (HepG2-C8) cell line has been established previously in our laboratory using the […]-luciferase reporter gene. The cells were maintained in Dulbecco's modified Eagle medium supplemented with 10% fetal bovine serum (FBS), 1.17 g/l sodium bicarbonate, and 100 unit/ml penicillin, 100 μg/ml streptomycin at 37° C. in a humidified incubator with 5% CO2. The HepG2-C8 cells were cultured in 12-well plates and each well contained 1 million cells in 1 ml of 10% FRS medium. The cells were treated with compounds for 24 h. The luciferase activity was determined using a luciferase kit from Promega (Madison, USA) according to the manufacturer's instructions. Briefly, after treatments for 24 h, the cells were washed twice with ice-cold phosphate buffered-saline (PBS, pH 7.4) and harvested in 1× reporter lysis buffer and […]. After centrifugation at 4° C., 12000 rpm for 5 min, a 10 μl aliquot of the supernatant was assayed for luciferase activity with a Sirius luminometer (Berthold Detection System GmbH, Pforzheim, Germany). The luciferase activity was normalized against protein concentration, determined by a BCA protein assay (Pierce, Rockford, USA), and expressed as the fold induction over the luciferase activity of control vehicle-treated cells. At least two to three independent studies were conducted in triplicates. To determine the synergistic effect between the combination of two different compounds, the combination index (CI) was calculated with the following formula: […] This approach is based on the Loewe additivity model and although the exact mechanism of interaction may be unknown, this model is one of the most commonly used reference models for evaluating potential drug-drug interactions Lee et al., J Biopharm Stat 2007; 17: 461-480).

[4] = system: first 5 CpGs in the promoter region of Nrf2 gene; assay: Bisulfite genomic sequencing of TRAMP C1 cells; format: cell-based, mouse; conditions: 5 days, untreated control 96.8%
Procedure: The DIM used in the study contains approximately 98% of DIM purchased from Sigma-Aldrich t St. Louis, Mo., USA), TRAMP C1 cells (provided by Dr. Barbara Foster, Department of Pharmacology and Therapeutics, Roswell Park Cancer institute, Buffalo. NY), originally derived from TRAMP prostate tumor, were cultured in Dulbecco's Modified Eagle's Medium (Invitrogen Corp., Carlsbad, Calif. U.S.A.) supplemented with 10% (V/V) fetal bovine serum (FBS) (Invitrogen Corp., Grand Island, N.Y., U.S.A.), penicillin 100 U/ml, and streptomycin 100 μg/ml (Invitrogen Corp., Grand Island, N.Y., U.S.A.), Cells were maintained in a humidified incubator with 5% CO2 at 37° C. Cells were seeded in 10 cm plates for 24 h and then treated with 0.1% DMSO (control) or different concentrations of DIM in 1% FBS containing medium for 5 days. The medium was changed every 2 days (20),
Genomic DNA was isolated from the control or DIM treated TRAMP C1 cells and TRAMP dorso-lateral prostate tissues collected from control and DIM treated groups pooled and homogenized using the DNeasy tissue kit (Qiagen, Valencia, Calif., U.S.A.). The genomic DNAs were extracted and subjected to bisulfite conversion carried out using 750 ng of genomic DNA and applying to EZ DNA Methylation Gold Kits (Zymo Research Corp., Orange, Calif., U.S.A.) following the manufacturer's instructions. […]

c1ccc2c(Cc3c[nH]c4ccccc34)c[nH]c2c1 [DIM, 3,3′-diindolylmethane]
tolerability [1]: well tolerated with no significant toxicity
PCNA staining (cell proliferation) [2]: significantly lower levels
induction of ARE-luciferase ([3]; 75 μM, 24 h, compared with any other treatment (p<0.05)): strongly induced
induction of ARE-luciferase ([3]; doses lower than 25 μM, 10% FBS medium (data not shown)): no significant induction
methylation of the first 5 CpGs of Nrf2 promoter ([4]; 2.5 μM): 73.7%
methylation of the first 5 CpGs of Nrf2 promoter ([4]; 5 μM): 55.8%
